Assay results taken from patent publication US20080200501A1, “NOVEL CANNABINOID RECEPTOR LIGANDS, PHARMACEUTICAL COMPOSITIONS CONTAINING THEM, AND PROCESSES FOR THEIR PREPARATION” (Glenmark Pharmaceuticals S.A., priority 2006, published 2008).

Columns and labels:
[1] = Pharmacokinetic study, single oral dose in rats; format: in vivo; details: Sprague-Dawley, rat; mean; male Sprague-Dawly rats, single oral dose 10 mg/kg in 0.5% methylcellulose suspension, overnight fasted; plasma, HPLC-UV
Protocol: Male Sprague-Dawly rats were administered by oral gavage a single oral dose of 10 mg/kg b.wt. test compound in 0.5% methylcellulose suspension in overnight fasted (12 hrs before dose) condition. Fasting was continued till 4 hr post dose. Blood samples were collected predose and at 15 and 30 minutes and 1, 2, 3, 4, 6, 8, 12 and 24 hrs post-dose and were kept on an ice bath till further processing. These samples were separated for plasma by centrifuging at 4° C. for 10 minutes at 1000×g and then stored at −70° C. till further analysis. These samples were analyzed for the levels of the test compound by HPLC-UV and the pharmacokinetic parameters were calculated using these concentrations by using WinNonlin software (Pharsight Inc., USA, Version 5.1).

Row | melting point [°C] | Structure (SMILES) | AUC(0-inf) [1] [ng·h/mL] | AUC(0-t) [1] [ng·h/mL] | Cmax [1] [ng/mL] | Tmax [1] [h] | half-life [1] [h]
1 | 76 to 78 | CCCCCC(C)(C)NC(=O)c1nn(-c2ccc(F)cc2F)c2c1C1CCC2C1 (stereo not drawn) |  |  |  |  | 
2 |  | CC(C)(CO)NC(=O)c1nn(-c2ccc(Cl)cc2)c2c1[C@@H]1CC[C@H]2C1 (single isomer, unassigned) [Compound 98, (1S,7R)- or (1R,7S)-N5-(2-Hydroxy-1,1-dimethylethyl)-3-(4-chlorophenyl)-3,4-diazatricyclo[5.2.1.0^2,6]deca-2(6),4-diene-5-carboxamide] | 12000 | 11700 | 1950 | 0.5 | 4.77
